Assay results as given in patent US20250295777A1, “HOMEOPATHIC PHARMACEUTICAL COMPOSITION FOR TREATING UPPER AND LOWER RESPIRATORY TRACT DISEASES” (priority 2022, published 2025).
Counter-ions that a name gives are not always drawn. Like-named read-outs stand apart in the source and are kept apart here.

How the values were obtained:
[1] = system: upper respiratory tract ciliated epithelium; assay: lifespan of the ciliated epithelium cilia / cell survival time in vitro (test sample vs isotonic NaCl control); type: cell-based, human (patients)
From the text: (§1) To determine the efficiency of mucociliary clearance, the authors of the present invention measured the frequency (Frequency) and period (Time) of the upper respiratory tract ciliated epithelium cilia beating using methods for determining these parameters that are well known to persons skilled in the art and have been repeatedly described in the prior art. The authors of the invention took into account that sufficient functioning of the ciliated epithelium cilia is the most important parameter of the effectiveness of mucociliary clearance (Duchateau G S M J E, Graamans K., Zuidema J., Merkus F W H M.—Laryngoscope 1985; 95:854-859), and, therefore, they measured the percentage of ciliated epithelium cells with motile cilia (Movement). Non-limiting (illustrative) examples of methods for determining the parameters of the upper respiratory tract ciliated epithelium cilia beating are given in V. V. Shabalin et al., Biophysical Methods for Studying Mucociliary Transport of the Normal and Pathological Upper and Lower Respiratory Tract.—See in Problems of Therapeutic and Surgical Pulmonology, collection of conference materials, Saint Petersburg, 1997, pp. 44-45.
(§2) The effect of the composition of the invention on the performance of the ciliated epithelium cilia and the lifespan of the ciliated epithelium was studied in comparison with separate components (Apis mellifica, Eupharsia officinalis, Allium cepa, Tatrarus stibiatus, Hepar sulphur, and Arnica montana separately), with the composition according to patent RU 2748548 and with an isotonic NaCl solution (0.9% solution).
(§3) The study included patients with acute and chronic rhinosinusitis, as well as patients without a history of otolaryngological disorders.
(§4) It is well known to persons skilled in the art that the optimal medium for the ciliated epithelium functioning is a saline (0.9% NaCl solution) and that this medium allows the ciliated epithelium cells to move synchronously and live the longest; therefore, ciliated epithelium treated with a saline was used as a control.
(§5) The results include the following parameters: • Frequency 1, Hz—the beating frequency of the ciliated epithelium cilia in the test sample, • Frequency 2, Hz—the beating frequency of the ciliated epithelium cilia in the control (isotonic NaCl solution), • Time 1, min—lifespan of the ciliated epithelium cilia in the test sample, • Time 2, min—lifespan of the ciliated epithelium cilia in the control.

[2] = system: upper respiratory tract ciliated epithelium cilia; assay: beating frequency of the ciliated epithelium cilia (in vitro, test sample vs isotonic NaCl control); type: cell-based, human (patients)
From the text: as §1, §2, §3, §4, §5

[3] = system: ciliated epithelium (upper respiratory tract epithelium cilia); conditions: cited from earlier work
[4] = average values over 5 patients / dilutions D3-C30
[5] = dilution C3, single patient sample
[6] = dilution C6, single patient sample
[7] = dilution C30, single patient sample
[8] = dilution D3, single patient sample
[9] = dilution D6, single patient sample

Compound: O.O.O.O=C([O-])[C@H]([O-])[C@@H]([O-])C(=O)[O-].O=C([O-])[C@H]([O-])[C@@H]([O-])C(=O)[O-].[K+].[K+].[Sb+3].[Sb+3] [Tartarus stibiatus, tartrate of antimony and potassium]
- Time 1, min (lifespan of the ciliated epithelium cilia in the test sample) [1, 4]: 24.6 min
- Time 1, min (lifespan of the ciliated epithelium cilia in the test sample) [1, 5]: 28 min
- Time 1, min (lifespan of the ciliated epithelium cilia in the test sample) [1, 6]: 20 min
- Time 1, min (lifespan of the ciliated epithelium cilia in the test sample) [1, 7]: 28 min
- Time 1, min (lifespan of the ciliated epithelium cilia in the test sample) [1, 8]: 27 min
- Time 1, min (lifespan of the ciliated epithelium cilia in the test sample) [1, 9]: 20 min
- Frequency 1, Hz (beating frequency of the ciliated epithelium cilia in the test sample) [2, 4]: 5.2134 Hz
- Frequency 1, Hz (beating frequency of the ciliated epithelium cilia in the test sample) [2, 5]: 6.503 Hz
- Frequency 1, Hz (beating frequency of the ciliated epithelium cilia in the test sample) [2, 6]: 5.283 Hz
- Frequency 1, Hz (beating frequency of the ciliated epithelium cilia in the test sample) [2, 7]: 4.092 Hz
- Frequency 1, Hz (beating frequency of the ciliated epithelium cilia in the test sample) [2, 8]: 5.177 Hz
- Frequency 1, Hz (beating frequency of the ciliated epithelium cilia in the test sample) [2, 9]: 5.012 Hz

Compound: CC(C)(O)C(Cl)(Cl)Cl [chlorbutol]
- ciliary beat frequency (CBF) reduced by [3]: 100%

Compound: C[C@@H]1CN([C@H]2CC[C@](C#N)(c3ccc(F)cc3)CC2)CC[C@]1(C(=O)O)c1ccccc1 [levocabastine]
- ciliary beat frequency (CBF) reduced by [3]: 13%

Compound: C[CH2][Hg][S]c1ccccc1C(=O)[O-].[Na+] [thiomersal]
- ciliary beat frequency (CBF) reduced by [3]: 100%

Compound: Cc1cc(C(C)(C)C)cc(C)c1CC1=NCCN1 [xylometazoline hydrochloride]
- ciliary beat frequency (CBF) reduced by ([3]; 0.1% solution): 69%

Compound: neomycin
- ciliary beat frequency (CBF) reduced by [3]: 82%
